Experimental data from patent publication US6613745B1, “Therapeutic molecules derived from snake venom” (National University of Singapore, priority 1997, dated 2003).
“Also recorded” adds a separate entry of the source. Peptide text beside a SMILES is read from it.

System: chick biventer muscle
Assay: Chick biventral experiment: contractile (twitch) responses evoked by electrical field stimulation
Design: species or system Gallus domesticus

C[C@@H](O)[C@H](NC(=O)[C@@H]1CCCN1C(=O)[C@H](Cc1ccccc1)NC(=O)[C@@H]1CCCN1C(=O)[C@@H](N)CC(N)=O)C(=O)N[C@@H](Cc1c[nH]c2ccccc12)C(=O)N[C@@H](CCCNC(=N)N)C(=O)N[C@@H](CCCCN)C(=O)N[C@@H](CCCNC(=N)N)C(=O)N1CCC[C@H]1C(=O)NCC(=O)O [synthesized peptide, Asn-Pro-Phe-Pro-Thr-Trp-Arg-Lys-Arg-Pro-Gly] (H-NPFPTWRKRPG-OH)
contractile (twitch) response of chick biventer evoked by electrical field stimulation (10 μg peptide added, EFS 25 V, 5 Hz×10s, 1 ms pulse width, every 100s, FIG. 1, listed as analgesic peptide): no change; also recorded: no effect
neurotoxic effect on the neuromuscular junction (10 μg peptide, concluded from FIG. 1): no neurotoxic effect
